# According to PubChem BioAssay AID1963828 (Molecular Pharmacology Branch, DTP, NCI, 2024):
# Where “and” joins values, the source holds several entries; their conditions need not be identical. Equal values may be shown once.
# Tested on: 991263-137-R1-J2-PDC complex spheroid viability
# Assay: Anticancer human tumor 991263-137-R1-J2-PDC patient-derived colon adenocarcinoma cell line growth inhibition [POLQ]
# Settings: for viability, T/C: stronger effect = lower value
# Method: Multicellular complex tumor spheroid response to Polymerase (POL) inhibitors (novobiocin, ART-558, RP6685) in combination with a variety of drugs and investigational agents in selected tumor cell lines
# The POL inhibitors (novobiocin, ART-558, and RP6685) were evaluated both individually and in combination with standard of care and investigational anticancer small molecules within a complex spheroid model of solid tumors. . Complex spheroids include a stromal component modeled by human endothelial cells (HUVEC) and fibroblasts modeled by human mesenchymal stem cells (MSCs). The concentration ranges selected for each drug and investigational agent were based upon clinically achievable concentrations if the clinical Cmax of the agent was known.
# Compounds. The drugs and investigational agents: novobiocin (NSC847541), ART-558 (NSC835418), RP-6685 (NSC848927), peposertib (NSC802822), ceralasertib (NSC780249), elimusertib (NSC800525), camonsertib (NSC841442), AZD-1390 (NSC803789), olaparib (NSC753686), talazoparib (NSC767125), rucaparib (NSC756644), sotorasib (NSC818433), MRTX-1133 (NSC836407), SN-38 (NSC673596), topotecan (NSC609699), epotoside (NSC141540), doxorubicin (NSC123127), gemcitabine (NSC613327), 5-fluorouracil (NSC19893), paclitaxel (NSC125973), vemurafenib (NSC761431), MSA-2 (NSC828583), SN-011 (NSC837082), adavosertib (NSC754352), prexasertib (NSC758257), carboplatin (NSC241240) and oxaliplatin (NSC266046), were obtained from the National Cancer Institute (NCI) Developmental Therapeutics Program Chemical Repository (21). The FDA-approved anticancer drug set is available from the Developmental Therapeutics Program at https://dtp.cancer.gov/organization/dscb/obtaining/. […] The stock solutions were prepared in dimethyl sulfoxide (DMSO, Sigma-Aldrich, St. Louis, MO, cat. D2650), except for the platinum compounds which were prepared in saline (Quality Biological, Gaithersburg, MD, cat. 114-055-101), at 800-fold the tested concentration and stored at -70 degrees C prior to their use. All drugs and investigational agents were tested over a range starting from a high concentration at or near the clinical Cmax and decreasing in half-log increments. If the clinical Cmax for an agent had not been determined, the highest concentration tested was 10 microM, except for SN-38, which was tested at a high concentration of 1 microM.
# Cell Culture. All cells were maintained in an incubator at 37 degrees C and 5% CO2 with 95% humidity. The PDC lines were cultured according to standard operating procedures established by the NCI PDMR (https://pdmr.cancer.gov). Table 3 of the manuscript, lists the cell lines along with the number of the three cell types plated to form the mct-spheroids and media for tumor cell growth. After thawing, all PDC lines, except 997537-175-T-J1-PDC and 415267-285-R-J2-PDC, were cultured in Matrigel-coated flasks prepared with a working solution of 1X Ham's F-12 nutrient mix, without supplementation (Thermo Fisher Scientific, cat. 11765054), 100 U/mL penicillin-streptomycin (Thermo Fisher Scientific, cat. 15140122), and 2.5% Matrigel (Corning Inc., Corning, NY, cat. 354248) for the first three passages. The two PDC lines 997537-175-T-J1-PDC and 415267-285-R-J2-PDC were cultured on uncoated flasks. The 857933-349-R-J2-PDC line was cultured in 6C/Colon 1B media containing advanced DMEM/F-12 (Thermo Fisher Scientific, cat. 12634028), 10 mM HEPES (Thermo Fisher Scientific, cat. 15630080), 1X GlutaMAX supplement (Thermo Fisher Scientific, cat. 35050061), 0.1 mg/mL primocin (InvivoGen, San Diego, CA, cat. ant-pm-2), 10% defined fetal bovine serum, heat inactivated (HyClone Laboratories Inc., Logan, UT, cat. SH30070.03HI), 50% L-WRN conditioned media (ATCC, cat. CRL-3276), 1.25 mM N-Acetyl-L-cysteine (Sigma-Aldrich, cat. A9165), 10 mM nicotinamide (Sigma-Aldrich, cat. N0636), 1X B-27 supplement (Thermo Fisher Scientific, cat. 17504044), 1X N-2 supplement (Thermo Fisher Scientific, cat. […]
# [1] = curve of first compound, second compound 0.0316 µM
# [2] = curve of first compound, second compound 0.1 µM
# [3] = curve of first compound, second compound 0.316 µM
# [4] = curve of first compound, second compound 1 µM
# [5] = curve of first compound, second compound 3.16 µM
# [6] = curve of first compound, second compound 10 µM
# [7] = second compound 0.0316 µM, first compound 0.0316 µM
# [8] = second compound 0.0316 µM, first compound 0.1 µM
# [9] = second compound 0.0316 µM, first compound 0.316 µM
# [10] = second compound 0.0316 µM, first compound 1 µM
# [11] = second compound 0.0316 µM, first compound 3.16 µM
# [12] = second compound 0.0316 µM, first compound 10 µM
# [13] = second compound 0.1 µM, first compound 0.0316 µM
# [14] = second compound 0.1 µM, first compound 0.1 µM
# [15] = second compound 0.1 µM, first compound 0.316 µM
# [16] = second compound 0.1 µM, first compound 1 µM
# [17] = second compound 0.1 µM, first compound 3.16 µM
# [18] = second compound 0.1 µM, first compound 10 µM
# [19] = second compound 0.316 µM, first compound 0.0316 µM
# [20] = second compound 0.316 µM, first compound 0.1 µM
# [21] = second compound 0.316 µM, first compound 0.316 µM
# [22] = second compound 0.316 µM, first compound 1 µM
# [23] = second compound 0.316 µM, first compound 3.16 µM
# [24] = second compound 0.316 µM, first compound 10 µM
# [25] = second compound 1 µM, first compound 0.0316 µM
# [26] = second compound 1 µM, first compound 0.1 µM
# [27] = second compound 1 µM, first compound 0.316 µM
# [28] = second compound 1 µM, first compound 1 µM
# [29] = second compound 1 µM, first compound 3.16 µM
# [30] = second compound 1 µM, first compound 10 µM
# [31] = second compound 3.16 µM, first compound 0.0316 µM
# [32] = second compound 3.16 µM, first compound 0.1 µM
# [33] = second compound 3.16 µM, first compound 0.316 µM
# [34] = second compound 3.16 µM, first compound 1 µM
# [35] = second compound 3.16 µM, first compound 3.16 µM
# [36] = second compound 3.16 µM, first compound 10 µM
# [37] = second compound 10 µM, first compound 0.0316 µM
# [38] = second compound 10 µM, first compound 0.1 µM
# [39] = second compound 10 µM, first compound 0.316 µM
# [40] = second compound 10 µM, first compound 1 µM
# [41] = second compound 10 µM, first compound 3.16 µM
# [42] = second compound 10 µM, first compound 10 µM
# 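Note: spheroids exposed to compounds for 7 days before readout.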
# 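Throughout, for viability, T/C: 100% = DMSO vehicle control viability.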
compound,measurement,setting,value
CCc1cc2c(N3CCc4c(cc(Cn5ccnc5)cc4-c4cn(C)nc4C(F)(F)F)C3=O)ccnc2c(OC)n1 + Nc1ccc(C#CCN(C(=O)Cc2ncc(C(F)(F)F)cc2C(F)(F)F)c2ccc(F)cc2)nn1,IC50,[1],> 10 µM
same,IC50,[2],> 10 µM
same,IC50,[3],> 10 µM
same,IC50,[4],> 10 µM
same,IC50,[5],> 10 µM
same,IC50,[6],> 10 µM
same,"viability, T/C",[7],118%
same,"viability, T/C",[8],109%
same,"viability, T/C",[9],101%
same,"viability, T/C",[10],92.2%
same,"viability, T/C",[11],91.5%
same,"viability, T/C",[12],88.7%
same,"viability, T/C",[13],97.1%
same,"viability, T/C",[14],103%
same,"viability, T/C",[15],108%
same,"viability, T/C",[16],101%
same,"viability, T/C",[17],96%
same,"viability, T/C",[18],90.2%
same,"viability, T/C",[19],107%
same,"viability, T/C",[20],99.8%
same,"viability, T/C",[21],106%
same,"viability, T/C",[22],111%
same,"viability, T/C",[23],103%
same,"viability, T/C",[24],79.3%
same,"viability, T/C",[25],95.1%
same,"viability, T/C",[26],107%
same,"viability, T/C",[27],108%
same,"viability, T/C",[28],91.9%
same,"viability, T/C",[29],97.4%
same,"viability, T/C",[30],95.7%
same,"viability, T/C",[31],116%
same,"viability, T/C",[32],112%
same,"viability, T/C",[33],87%
same,"viability, T/C",[34],101%
same,"viability, T/C",[35],95.3%
same,"viability, T/C",[36],89.6%
same,"viability, T/C",[37],95.1%
same,"viability, T/C",[38],102%
same,"viability, T/C",[39],107%
same,"viability, T/C",[40],89.8%
same,"viability, T/C",[41],86.4%
same,"viability, T/C",[42],82.9%
O=c1[nH]cc(F)c(=O)[nH]1 + Nc1ccc(C#CCN(C(=O)Cc2ncc(C(F)(F)F)cc2C(F)(F)F)c2ccc(F)cc2)nn1,IC50,[1],> 10 µM
same,IC50,[2],> 10 µM
same,IC50,[3],> 10 µM
same,IC50,[4],> 10 µM
same,IC50,[5],> 10 µM
same,IC50,[6],> 10 µM
same,"viability, T/C",[7],118%
same,"viability, T/C",[8],112%
same,"viability, T/C",[9],96.5%
same,"viability, T/C",[10],97.1%
same,"viability, T/C",[11],89.4%
same,"viability, T/C",[12],89.3%
same,"viability, T/C",[13],113%
same,"viability, T/C",[14],115%
same,"viability, T/C",[15],96%
same,"viability, T/C",[16],101%
same,"viability, T/C",[17],87%
same,"viability, T/C",[18],80.9%
same,"viability, T/C",[19],94.5%
same,"viability, T/C",[20],104%
same,"viability, T/C",[21],101%
same,"viability, T/C",[22],93%
same,"viability, T/C",[23],85.6%
same,"viability, T/C",[24],86.1%
same,"viability, T/C",[25],117%
same,"viability, T/C",[26],114%
same,"viability, T/C",[27],111%
same,"viability, T/C",[28],90.2%
same,"viability, T/C",[29],92.4%
same,"viability, T/C",[30],86%
same,"viability, T/C",[31],116%
same,"viability, T/C",[32],106%
same,"viability, T/C",[33],86.9%
same,"viability, T/C",[34],89%
same,"viability, T/C",[35],92.2%
same,"viability, T/C",[36],78.4%
same,"viability, T/C",[37],126%
same,"viability, T/C",[38],101%
same,"viability, T/C",[39],92.6%
same,"viability, T/C",[40],85%
same,"viability, T/C",[41],83.4%
same,"viability, T/C",[42],84.9%
COc1cc2cc(C(=O)CCC(=O)O)sc2cc1OC,"viability, T/C",compound 0.0316 µM,104% and 107% and 91.3%
same,"viability, T/C",compound 0.1 µM,85% and 96.5% and 104%
same,"viability, T/C",compound 0.316 µM,117% and 104% and 114%
same,"viability, T/C",compound 10 µM,74.1% and 83.3% and 78.4%
same,IC50,curve of compound,> 10 µM
